According to PMC6158578, “Optimization and Lead Selection of Benzothiazole Amide Analogs Toward a Novel Antimycobacterial Agent” (Frontiers in Microbiology, 2018):
≈ marks a conversion by molar mass, not a printed value.

Key:
Assay in all cases: microbe, parasite or virus in culture
Assay type in all cases: cell-based, M. tuberculosis
Details in all cases: Mycobacterium tuberculosis
[1] = system: Isoniazid-resistant Mtb strain 1
[2] = system: Rifampin-resistant Mtb strain 1
[3] = system: Isoniazid-resistant Mtb strain 2
[4] = system: Rifampin-resistant Mtb strain 2
[5] = system: Fluoroquinolone-resistant Mtb

SMILES: CC12CC3CC(C)(C1)CC(C(=O)Nc1nc4ccc(OC(F)(F)F)cc4s1)(C3)C2 [CRS400226]
- IC90 [1]: 3.9 mg/L (≈ 9.19 µM)
- IC90 [2]: 3.9 mg/L (≈ 9.19 µM)
- IC90 [3]: 4.2 mg/L (≈ 9.89 µM)
- IC90 [4]: 4.7 mg/L (≈ 11.1 µM)
- IC90 [5]: 3.7 mg/L (≈ 8.72 µM)
